Assay results from the NIST ThermoML archive (doi:10.1016/j.jct.2016.03.026).

Test: xn = mol fraction of the nth substance listed
Settings: 263.15 K, Fluid (supercritical or subcritical phases), Vibrating tube method, x1 = 0.97

O=C=O [carbon dioxide] + CO
Settings	mass density [kg/m3]
7525 kPa	1006.96
7550 kPa	1007.04
7575 kPa	1007.2
7600 kPa	1007.28
7625 kPa	1007.38
7650 kPa	1007.53
7675 kPa	1007.61
7700 kPa	1007.76
7725 kPa	1007.86
7750 kPa	1007.94
7775 kPa	1008.1
7800 kPa	1008.18
7825 kPa	1008.35
7850 kPa	1008.43
7875 kPa	1008.51
7900 kPa	1008.68
7925 kPa	1008.76
7950 kPa	1008.84
7975 kPa	1009
8000 kPa	1009.08
8025 kPa	1009.16
8050 kPa	1009.33
8075 kPa	1009.41
8100 kPa	1009.54
8125 kPa	1009.66
8150 kPa	1009.74
8175 kPa	1009.86
8200 kPa	1009.98
8225 kPa	1010.06
8250 kPa	1010.23
8275 kPa	1010.31
8300 kPa	1010.39
8325 kPa	1010.56
8350 kPa	1010.64
8375 kPa	1010.74
8400 kPa	1010.88
8425 kPa	1010.96
8450 kPa	1011.04
8475 kPa	1011.21
8500 kPa	1011.29
8525 kPa	1011.44
8550 kPa	1011.54
8575 kPa	1011.62
8600 kPa	1011.73
8625 kPa	1011.86
8650 kPa	1011.94
8675 kPa	1012.05
8700 kPa	1012.19
8725 kPa	1012.27
8750 kPa	1012.41
8775 kPa	1012.52
8800 kPa	1012.6
8825 kPa	1012.76
8850 kPa	1012.85
8875 kPa	1012.93
8900 kPa	1013.03
8925 kPa	1013.17
8950 kPa	1013.25
8975 kPa	1013.35
9000 kPa	1013.49
9025 kPa	1013.58
9050 kPa	1013.66
9075 kPa	1013.83
9100 kPa	1013.91
9125 kPa	1013.99
9150 kPa	1014.08
9175 kPa	1014.23
9200 kPa	1014.31
9225 kPa	1014.39
9250 kPa	1014.56
9275 kPa	1014.64
9300 kPa	1014.72
9325 kPa	1014.89
9350 kPa	1014.97
9375 kPa	1015.05
9400 kPa	1015.13
9425 kPa	1015.3
9450 kPa	1015.38
9475 kPa	1015.46
9500 kPa	1015.54
9525 kPa	1015.7
9550 kPa	1015.78
9575 kPa	1015.87
9600 kPa	1016.03
9625 kPa	1016.11
9650 kPa	1016.19
9675 kPa	1016.28
9700 kPa	1016.44
9725 kPa	1016.52
9750 kPa	1016.6
9775 kPa	1016.77
9800 kPa	1016.85
9825 kPa	1016.93
9850 kPa	1017.01
9875 kPa	1017.17
9900 kPa	1017.25
9925 kPa	1017.34
9950 kPa	1017.47
9975 kPa	1017.58
10000 kPa	1017.66
10025 kPa	1017.74
10050 kPa	1017.83
10075 kPa	1017.99
10100 kPa	1018.07
10125 kPa	1018.15
10150 kPa	1018.23
10175 kPa	1018.34
10200 kPa	1018.48
10225 kPa	1018.56
10250 kPa	1018.68
10275 kPa	1018.81
10300 kPa	1018.89
10325 kPa	1018.97
10350 kPa	1019.09
10375 kPa	1019.21
10400 kPa	1019.3
10425 kPa	1019.38
10450 kPa	1019.46
10475 kPa	1019.62
10500 kPa	1019.7
10525 kPa	1019.78
10550 kPa	1019.87
10575 kPa	1020.02
10600 kPa	1020.11
10625 kPa	1020.19
10650 kPa	1020.27
10675 kPa	1020.44
10700 kPa	1020.52
10725 kPa	1020.6
10750 kPa	1020.68
10775 kPa	1020.76
10800 kPa	1020.93
10825 kPa	1021.01
10850 kPa	1021.09
10875 kPa	1021.17
10900 kPa	1021.25
10925 kPa	1021.42
10950 kPa	1021.5
10975 kPa	1021.58
11000 kPa	1021.66
11025 kPa	1021.83
11050 kPa	1021.91
11075 kPa	1021.99
11100 kPa	1022.07
11125 kPa	1022.15
11150 kPa	1022.29
11175 kPa	1022.4
11200 kPa	1022.48
11225 kPa	1022.56
11250 kPa	1022.64
11275 kPa	1022.8
11300 kPa	1022.89
11325 kPa	1022.97
11350 kPa	1023.05
11375 kPa	1023.13
11400 kPa	1023.29
11425 kPa	1023.38
11450 kPa	1023.46
11475 kPa	1023.54
11500 kPa	1023.62
11525 kPa	1023.75
11550 kPa	1023.86
11575 kPa	1023.95
11600 kPa	1024.03
11625 kPa	1024.11
11650 kPa	1024.21
11675 kPa	1024.35
11700 kPa	1024.44
11725 kPa	1024.52
11750 kPa	1024.6
11775 kPa	1024.74
11800 kPa	1024.84
11825 kPa	1024.93
11850 kPa	1025.01
11875 kPa	1025.09
11900 kPa	1025.19
11925 kPa	1025.29
11950 kPa	1025.41
11975 kPa	1025.5
12000 kPa	1025.58
12025 kPa	1025.66
12050 kPa	1025.75
12075 kPa	1025.9
12100 kPa	1025.98
12125 kPa	1026.07
12150 kPa	1026.15
12175 kPa	1026.31
12200 kPa	1026.39
12225 kPa	1026.47
12250 kPa	1026.56
12275 kPa	1026.64
12300 kPa	1026.72
12325 kPa	1026.88
12350 kPa	1026.96
12375 kPa	1027.05
12400 kPa	1027.13
12425 kPa	1027.21
12450 kPa	1027.29
12475 kPa	1027.38
12500 kPa	1027.53
12525 kPa	1027.62
12550 kPa	1027.7
12575 kPa	1027.78
12600 kPa	1027.86
12625 kPa	1027.96
12650 kPa	1028.09
12675 kPa	1028.19
12700 kPa	1028.27
12725 kPa	1028.35
12750 kPa	1028.43
12775 kPa	1028.51
12800 kPa	1028.6
12825 kPa	1028.76
12850 kPa	1028.84
12875 kPa	1028.92
12900 kPa	1029
12925 kPa	1029.08
12950 kPa	1029.2
12975 kPa	1029.3
13000 kPa	1029.41
13025 kPa	1029.49
13050 kPa	1029.57
13075 kPa	1029.65
13100 kPa	1029.73
13125 kPa	1029.88
13150 kPa	1029.94
13175 kPa	1030.06
13200 kPa	1030.14
13225 kPa	1030.22
13250 kPa	1030.31
13275 kPa	1030.39
13300 kPa	1030.53
13325 kPa	1030.63
13350 kPa	1030.71
13375 kPa	1030.8
13400 kPa	1030.88
13425 kPa	1030.96
13450 kPa	1031.04
13475 kPa	1031.14
13500 kPa	1031.29
13525 kPa	1031.37
13550 kPa	1031.45
13575 kPa	1031.53
13600 kPa	1031.61
